# Data taken from patent US9416141B2 (University of Washington through its Center for …, priority 2012, dated 2016).
# Structures can show the parent of a compound that is named as a salt.
# Test system: hair cells
# Assay: Hair cell toxicity assay in zebrafish (neomycin-induced hair cell death, DASPEI staining of neuromasts)
# Assay type: in vivo
# Conditions: Danio rerio; for Emax at 2.8 µM: maximum observed @ 2.8 μM test compound; for Emax at 25 µM: maximum observed @ 25 μM test compound; for EC50: zebrafish larvae 5-7 dpf, 1 h pre-treatment, then 200 micromolar neomycin + test compound 30 min, read-out: HC50 (concentration that would produce 50% hair cell survival); for Emax at 8.3 µM: maximum observed @ 8.3 μM test compound
# Procedure: Zebrafish are bred and newly fertilized embryos are collected the week prior and raised at 28.5° C. in petri dishes containing embryo medium. Newly hatched free-swimming larvae are fed paramecium and dry fish food at 4 days post fertilization (dpf) with lights on. For treatment, fish 5-7 dpf are transferred to cell culture baskets and place within a well of a 6-well plate containing 7 milliliters of 1× embryo medium. Typically, tests are done with ten fish per basket but work well with up to 50 fish. All treatment and wash volumes are 7 milliliters. • 1. Fish are pre-treated with test compound for 1 hour. […] Treat with 200 micromolar neomycin (neomycin sulfate, Sigma, St. Louis, Mo., catalog #N1142)+test compound for 30 minutes. • 3. Rinse fish briefly 4 times in embryo medium and add 700 μl of 0.05% DASPEI (2-{4-(dimethylamino)styryl}-N-ethylpyridinium iodide, Molecular Probes, Eugene, Oreg.) and allowed to stain for 15 minutes. • 4. Rinse twice in embryo medium and add 350 μl MS222 (0.55 ug/ml final concentration, 3-aminobenzoic acid ethyl ester, methansulfoneate salt, Sigma, St. Louis, Mo.) to anesthetize. • 5. View with epifluorescence dissecting microscope equipped with a DAPSEI filter set (excitation […], Chroma Technologies, Brattleboro, Vt.). For assessment of initial dose response curves, fish are transferred to wide depression slide with wide-bore pipette. The DASPEI staining of ten neuromasts (SO1, SO2, IO1, IO2, IO3, IO4, M2, MI1, MI2 and O2) on one side of an animal are evaluated. Each neuromast is scored for presence of DASPEI staining (score=2), reduced DASPEI staining (score=1) or absence of DASPEI staining (score=0). Total scores for an animal are tabulated, to give a composite score that can range from 0 to 20. Average scores and standard deviations are calculated for animals in each treatment group. Scores are normalized to control group (vehicle only, no drug, no neomycin) and expressed as % hair cell survival. HCmax is the maximum protection (hair cell survival) observed. • 6. If at least 50% hair cells survive, the HC50 (concentration that would produce 50% hair cell survival) is calculated as a linear extrapolation from the nearest concentrations of protective drug that produce hair cell survival below and above 50%. If less than 50% hair cells survive, the HC50 is not determined. 1× embryo media (standard lab EM): • 1 mM MgSO4, • 0.15 mM KH2PO4, • 0.05 mM Na2HPO4, • 1 mM CaCl2, • 0.5 mM KCl • 15 mM NaCl • 0.7 mM NaHCO3
# [1] = 200 micromolar neomycin, read-out: Max HC Protection (HCmax, % hair cell survival)
Structure (SMILES),Emax at 25 µM [1] [%],EC50 [µM],also measured
"CN(C)C(=O)CCCN1CCc2c(sc(NC(=O)Nc3ccc(Cl)cc3)c2C(N)=O)C1 [Example 23, 2-[3-(4-Chlorophenyl)ureido]-6-[4-(dimethylamino)-4-oxobutyl]-4,5,6,7-tetrahydrothieno[2,3-c]pyridine-3-carboxamide hydrochloride]",–,–,Emax at 2.8 µM [1]: 43%
"CCN1CCc2c(sc(NC(=O)NCc3ccc(Cl)cc3)c2C(N)=O)C1 [Example 76, 2-[3-(4-Chlorobenzyl)ureido]-6-ethyl-4,5,6,7-tetrahydrothieno[2,3-c]pyridine-3-carboxamide hydrochloride]",40,–,–
"CCN1CCc2c(sc(NC(=O)Nc3ccc(Cl)cc3Cl)c2C(N)=O)C1 [Example 229, 2-{[(2,4-dichlorophenyl)carbamoyl]amino}-6-ethyl-4H,5H,6H,7H-thieno[2,3-c]pyridine-3-carboxamide]",54,> 10,–
"NC(=O)c1c(NC(=O)Nc2ccc(Cl)cc2)sc2c1CCN(CC1CCCC1)C2 [Example 17, 2-[3-(4-Chlorophenyl)ureido]-6-(cyclopentylmethyl)-4,5,6,7-tetrahydrothieno[2,3-c]pyridine-3-carboxamide hydrochloride]",–,1 to 10,Emax at 8.3 µM [1]: 65%
"NC(=O)c1c(NC(=O)Nc2ccc(Cl)cc2)sc2c1CCN(C1CCNC1)C2 (racemic) [Example 7, (+/−)-2-[3-(4-Chlorophenyl)ureido]-6-(pyrrolidin-3-yl)-4,5,6,7-tetrahydrothieno[2,3-c]pyridine-3-carboxamide dihydrochloride]",78,1 to 10,–
"CN1C2CCC1c1sc(NC(=O)Nc3ccc(C(=O)c4ccccc4)cc3)c(C(N)=O)c1C2 (racemic) [Example 126, (+/−)-2-[3-(4-Benzoylphenyl)ureido]-9-methyl-5,6,7,8-tetrahydro-4H-5,8-epiminocyclohepta[b]thiophene-3-carboxamide hydrochloride]",–,–,Emax at 2.8 µM [1]: 41%
"CCN1CCc2c(sc(NC(=O)Nc3cccc4nsnc34)c2C(N)=O)C1 [Example 80, 2-[3-(Benzo[c][1,2,5]thiadiazol-4-yl)ureido]-6-ethyl-4,5,6,7-tetrahydrothieno[2,3-c]pyridine-3-carboxamide hydrochloride]",–,–,Emax at 8.3 µM [1]: 36%
"NC(=O)c1c(NC(=O)Nc2ccc(Cl)cc2)sc2c1CCN(CC(F)(F)F)C2 [Example 89, 2-[3-(4-Chlorophenyl)ureido]-6-(2,2,2-trifluoroethyl)-4,5,6,7-tetrahydrothieno[2,3-c]pyridine-3-carboxamide]",–,–,Emax at 8.3 µM [1]: 18%
"CCN1CCc2c(sc(NC(=O)Nc3ccc(Cl)cc3)c2C(=O)N2CCOCC2)C1 [Example 95, 1-(4-chlorophenyl)-3-[6-ethyl-3-(morpholine-4-carbonyl)-4,5,6,7-tetrahydrothieno[2,3-c]pyridin-2-yl]urea hydrochloride]",78,1 to 10,–
"CC[N+]1(C)CCc2c(sc(NC(=O)Nc3ccc(Cl)cc3)c2C(N)=O)C1 (stereo not drawn) [Example 136, 3-Carbamoyl-2-[3-(4-chlorophenyl)ureido]-6-ethyl-6-methyl-4,5,6,7-tetrahydrothieno[2,3-c]pyridin-6-ium iodide]",76,1 to 10,–
"CC[N+]1(C)CCc2c(sc(NC(=O)NCc3ccc(Cl)cc3)c2C(N)=O)C1 (stereo not drawn) [Example 148, 3-Carbamoyl-2-[3-(4-chlorobenzyl)ureido]-6-ethyl-6-methyl-4,5,6,7-tetrahydrothieno[2,3-c]pyridin-6-ium iodide]",51,> 10,–
"CC[N+]1(C)CCc2sc(NC(=O)Nc3ccc(Cl)cc3)c(C(N)=O)c2CC1 (stereo not drawn) [Example 174, 3-Carbamoyl-2-[3-(4-chlorophenyl)ureido]-6-ethyl-6-methyl-5,6,7,8-tetrahydro-4H-thieno[2,3-d]azepin-6-ium iodide]",74,1 to 10,–
"CC(C(=O)OC(C)(C)C)N1CCc2c(sc(NC(=O)Nc3ccc(Cl)cc3)c2C(N)=O)C1 (racemic) [Example 59, (+/−)-tert-Butyl 2-{3-carbamoyl-2-[3-(4-chlorophenyl)ureido]-4,5-dihydrothieno[2,3-c]pyridin-6(7H)-yl}propanoate]",–,–,Emax at 8.3 µM [1]: 40%
"CN1CCC(N2CCc3c(sc(NC(=O)Nc4ccc(Cl)cc4)c3C(N)=O)C2)CC1 [Example 8, 2-[3-(4-Chlorophenyl)ureido]-6-(1-methylpiperidin-4-yl)-4,5,6,7-tetrahydrothieno[2,3-c]pyridine-3-carboxamide dihydrochloride]",84,> 10,–
"CC[N+]1(CC)CCc2c(sc(NC(=O)Nc3ccc(Cl)cc3)c2C(N)=O)C1 [Example 139, 3-Carbamoyl-2-[3-(4-chlorophenyl)ureido]-6,6-diethyl-4,5,6,7-tetrahydrothieno[2,3-c]pyridin-6-ium iodide]",99,< 1,–
"CC(C)(C)OC(=O)CCN1CCc2c(sc(NC(=O)Nc3ccc(Cl)cc3)c2C(N)=O)C1 [Example 51, tert-Butyl 3-{3-Carbamoyl-2-[3-(4-chlorophenyl)ureido]-4,5-dihydrothieno[2,3-c]pyridin-6(7H)-yl}propanoate]",–,1 to 10,Emax at 8.3 µM [1]: 55%
"NC(=O)c1c(NC(=O)Nc2ccc(Cl)cc2)sc2c1CCN(C1CCOCC1)C2 [Example 5, 2-[3-(4-Chlorophenyl)ureido]-6-(tetrahydro-2H-pyran-4-yl)-4,5,6,7-tetrahydrothieno[2,3-c]pyridine-3-carboxamide hydrochloride]",–,1 to 10,Emax at 8.3 µM [1]: 89%
"CCN1C2CCC1c1sc(NC(=O)Nc3ccc(Cl)cc3)c(C(N)=O)c1C2 (racemic) [Example 133, (+/−)-2-[3-(4-Chlorophenyl)ureido]-9-ethyl-5,6,7,8-tetrahydro-4H-5,8-epiminocyclohepta[b]thiophene-3-carboxamide hydrochloride]",76,< 1,–
"CCN1CCc2c(sc(NC(=O)Nc3ccc(F)c(F)c3)c2C(N)=O)C1 [Example 70, 2-[3-(3,4-Difluorophenyl)ureido]-6-ethyl-4,5,6,7-tetrahydrothieno[2,3-c]pyridine-3-carboxamide hydrochloride]",64,1 to 10,–
"CC[N+]1(C)CCc2c(sc(NC(=O)N(C)c3ccc(Cl)cc3)c2C(N)=O)C1 (stereo not drawn) [Example 185, 3-Carbamoyl-2-[3-(4-chlorophenyl)-3-methylureido]-6-ethyl-6-methyl-4,5,6,7-tetrahydrothieno[2,3-c]pyridin-6-ium chloride]",–,–,Emax at 2.8 µM [1]: 16%
"CCN1CCc2c(sc(NC(=O)Nc3ccc4ncccc4c3)c2C(N)=O)C1 [Example 79, 6-Ethyl-2-[3-(quinolin-6-yl)ureido]-4,5,6,7-tetrahydrothieno[2,3-c]pyridine-3-carboxamide dihydrochloride]",–,–,"Emax at 0.3 µM (maximum observed @ 0.3 μM test compound, 200 micromolar neomycin, read-out: Max HC Protection (HCmax, % hair cell survival)): 34%"
"C#CCCC(=O)NCCCN1CCc2c(sc(NC(=O)Nc3ccc(Cl)cc3)c2C(N)=O)C1 [Example 216, 2-{[(4-chlorophenyl)carbamoyl]amino}-6-[3-(pent-4-ynamido)propyl]-4H,5H,6H,7H-thieno[2,3-c]pyridine-3-carboxamide]",97,1 to 10,–
"CCN1CCc2c(sc(NC(=O)Nc3cnc4ccccc4c3)c2C(N)=O)C1 [Example 78, 6-Ethyl-2-[3-(quinolin-3-yl)ureido]-4,5,6,7-tetrahydrothieno[2,3-c]pyridine-3-carboxamide dihydrochloride]",52,> 10,–
"CC(C)(C)OC(=O)CCCCN1CCc2c(sc(NC(=O)Nc3ccc(Cl)cc3)c2C(N)=O)C1 [Example 19, tert-Butyl 5-{3-carbamoyl-2-[3-(4-chlorophenyl)ureido]-4,5-dihydrothieno[2,3-c]pyridin-6(7H)-yl}pentanoate]",–,< 1,Emax at 8.3 µM [1]: 68%
"CC(=O)NCCN1CCc2c(sc(NC(=O)Nc3ccc(Cl)cc3)c2C(N)=O)C1 [Example 15, 6-(2-Acetamidoethyl)-2-[3-(4-chlorophenyl)ureido]-4,5,6,7-tetrahydrothieno[2,3-c]pyridine-3-carboxamide trifluoroacetate]",57,> 10,–
